{
  "source": "patent US4795761A",
  "about": "“Contraceptive composition” (Euroceltique S.A., priority 1986, dated 1989)",
  "key": {"human sperm": {"tested_on": "human sperm", "assay": "Human sperm motility, transmembrane migration ratio (two-chamber membrane method)", "type": "cell-based", "conditions": "for inhibition at 100 µM: beta-blocker 0.1 mM alone; for inhibition at 25000 µM: beta-blocker 25 mM alone", "description": "A simple method for measuring human sperm motility was developed as a modification to the method of C. […] The method used two chambers separated by a membrane and assessed the proportion of spermatozoa, from a small aliquot of semen, that moved across the membrane from the upper to the lower chamber.\nThe apparatus consisted of an upper and a lower chamber, the upper chamber being the plunger of a 2 ml disposable syringe. A 13 mm diameter Nuclepore membrane filter was bonded to the plunger using dichloromethane.\nThe mixture was pre-incubated at 37° C. for 10 minutes.\nAfter pre-incubation the mixture was vortexed and 100 μl was pipetted onto the membrane of the upper chamber. The upper chamber was then inserted into the lower chamber, which contained 2 ml of phosphate buffered saline at 37° C.\nThe relative positions of the two chambers were fixed so that the fluid levels were equal.\nThe apparatus was then incubated for 90 mins. at 37° C. After this time, the upper chamber was removed and its contents were washed into 1.9 ml phosphate buffered saline containing 50 ul of 10% formalin solution by breaking the membrane. The spermatozoa in the lower chamber were also killed by adding 50 ul of the formalin to the lower chamber.\nFinally, the number of spermatozoa in the upper and lower chambers were counted using a haemocytometer. The proportion of spermatozoa that traverse the membrane into the lower chamber is referred to as the transmembrane migration ratio.\nUsing the same technique, but a different sperm source the control of sperm motility achieved by nonoxynol-9, various beta-blockers and mixtures of nonoxynol-9 and a beta-blocker was measured. […] Again, mM represents millimolar."}, "[1]": {"conditions": "cited from earlier work"}, "[2]": {"conditions": "Homo sapiens, Sperm, Table 2, beta-blocker 1.0 mM alone, read-out: % Inhibition of Sperm Motility"}, "[3]": {"conditions": "Homo sapiens, Sperm, Table 3, beta-blocker 1.0 mM alone, read-out: % Inhibition of Sperm Motility"}, "[4]": {"conditions": "Homo sapiens, Sperm, Table 5, beta-blocker 1 mM alone, read-out: % Inhibition of Sperm Motility"}},
  "note": "Where two headings read alike, the source gives them in different places.",
  "data": [
    {"compound": "Octoxynol", "values": [
      {"measurement": "% Inhibition of Sperm Motility", "setting": "human sperm; Table 5, another sperm source, Octoxynol at its IC50, alone", "result": 50.0, "unit": "%"}
    ]},
    {"compound": "CC(C)(C)NC[C@H](O)COc1ccccc1C1CCCC1", "note": "[Penbutolol]", "values": [
      {"measurement": "inhibition at 100 µM", "setting": "human sperm; Homo sapiens, Sperm, Table 2", "result": 6.2, "unit": "%"},
      {"measurement": "inhibition at 100 µM", "setting": "human sperm; Homo sapiens, Sperm, Table 3", "result": 0, "unit": "%"},
      {"measurement": "inhibition at 100 µM", "setting": "human sperm; Homo sapiens, Sperm, Table 5", "result": 17.8, "unit": "%"},
      {"measurement": "apparent octanol/buffer (pH 7.4) partition coefficient", "setting": "[1]", "result": "greater than 1"}
    ]},
    {"compound": "COCCc1ccc(OCC(O)CNC(C)C)cc1", "note": "(stereo not drawn) [Metoprolol]", "values": [
      {"measurement": "inhibition at 10000 µM", "setting": "human sperm; Homo sapiens, Sperm, Table 2, beta-blocker 10.0 mM alone", "result": 7.1, "unit": "%"},
      {"measurement": "inhibition at 10000 µM", "setting": "human sperm; Homo sapiens, Sperm, Table 3, beta-blocker 10 mM alone", "result": 0, "unit": "%"}
    ]},
    {"compound": "CCc1cccc2cc(C(O)CNC(C)(C)C)oc12", "note": "(stereo not drawn) [Bufuralol]", "values": [
      {"measurement": "inhibition at 1000 µM", "setting": "human sperm; Homo sapiens, Sperm, read-out: % Inhibition of Sperm Motility, Table 2, beta-blocker 1.0 mM alone", "result": 28.5, "unit": "%"},
      {"measurement": "inhibition at 1000 µM", "setting": "human sperm; Homo sapiens, Sperm, read-out: % Inhibition of Sperm Motility, Table 3, beta-blocker 1.0 mM alone", "result": 22, "unit": "%"},
      {"measurement": "apparent octanol/buffer (pH 7.4) partition coefficient", "setting": "[1]", "result": "greater than 1"}
    ]},
    {"compound": "CCCC(=O)Nc1ccc(OCC(O)CNC(C)C)c(C(C)=O)c1", "note": "(stereo not drawn) [Acebutolol]", "values": [
      {"measurement": "inhibition at 25000 µM", "setting": "human sperm; Homo sapiens, Sperm, Table 4", "result": 11.3, "unit": "%"}
    ]},
    {"compound": "C=CCc1ccccc1OC[C@@H](O)CNC(C)C", "note": "[1-Alprenolol]", "values": [
      {"measurement": "inhibition at 1000 µM", "setting": "human sperm; [2]", "result": 17, "unit": "%"},
      {"measurement": "inhibition at 1000 µM", "setting": "human sperm; [3]", "result": 26.9, "unit": "%"}
    ]},
    {"compound": "Nonoxynol-9", "values": [
      {"measurement": "% Inhibition of Sperm Motility", "setting": "human sperm; Table 1, Nonoxynol-9 0.16 mM alone, % of control", "result": 12.5, "unit": "%"},
      {"measurement": "% Inhibition of Sperm Motility", "setting": "human sperm; Table 1, Nonoxynol-9 1.6 mM alone, % of control", "result": 97.7, "unit": "%"},
      {"measurement": "% Inhibition of Sperm Motility", "setting": "human sperm; Table 2, different sperm source, Nonoxynol-9 at its IC50, alone", "result": 50, "unit": "%"},
      {"measurement": "% Inhibition of Sperm Motility", "setting": "human sperm; Table 3, another sperm source, Nonoxynol-9 at its IC50, alone", "result": 50.0, "unit": "%"},
      {"measurement": "% Inhibition of Sperm Motility", "setting": "human sperm; Table 4, another sperm source, Nonoxynol-9 at its IC50, alone", "result": 50.0, "unit": "%"}
    ]},
    {"compound": "CC(C)NCC(O)COc1cccc2ccccc12", "note": "(racemic) [d,1-Propranolol]", "values": [
      {"measurement": "inhibition at 1000 µM", "setting": "human sperm; [2]", "result": 24.6, "unit": "%"},
      {"measurement": "inhibition at 1000 µM", "setting": "human sperm; [4]", "result": 10.5, "unit": "%"}
    ]},
    {"compound": "CC(C)NC[C@@H](O)COc1cccc2ccccc12", "note": "[d-Propranolol]", "values": [
      {"measurement": "inhibition at 1000 µM", "setting": "human sperm; Homo sapiens, Sperm, Table 1, d-Propranolol 1.0 mM alone, % of control, read-out: % Inhibition of Sperm Motility", "result": 28, "unit": "%"},
      {"measurement": "inhibition at 2500 µM", "setting": "human sperm; Homo sapiens, Sperm, Table 1, d-Propranolol 2.5 mM alone, % of control", "result": 76.5, "unit": "%"},
      {"measurement": "inhibition at 1000 µM", "setting": "human sperm; [2]", "result": 3.6, "unit": "%"},
      {"measurement": "inhibition at 1000 µM", "setting": "human sperm; [3]", "result": 4, "unit": "%"},
      {"measurement": "inhibition at 1000 µM", "setting": "human sperm; [4]", "result": 0.2, "unit": "%"}
    ]},
    {"compound": "CC(C)NCC(O)COc1cccc2[nH]ccc12", "note": "(stereo not drawn) [Pindolol]", "values": [
      {"measurement": "inhibition at 25000 µM", "setting": "human sperm; Homo sapiens, Sperm, Table 3", "result": 10.2, "unit": "%"}
    ]},
    {"compound": "CC(C)(C)NC[C@H](O)COc1nsnc1N1CCOCC1", "note": "[Timolol]", "values": [
      {"measurement": "inhibition at 25000 µM", "setting": "human sperm; Homo sapiens, Sperm, Table 4", "result": 4.9, "unit": "%"}
    ]},
    {"compound": "C=CCc1ccccc1OCC(O)CNC(C)C", "note": "(stereo not drawn) [alprenolol]", "values": [
      {"measurement": "apparent octanol/buffer (pH 7.4) partition coefficient", "setting": "[1]", "result": "greater than 1"}
    ]},
    {"compound": "C=CCOc1ccccc1OCC(O)CNC(C)C", "note": "(stereo not drawn) [Oxprenolol]", "values": [
      {"measurement": "inhibition at 5000 µM", "setting": "human sperm; Homo sapiens, Sperm, Table 2, beta-blocker 5.0 mM alone", "result": 3.4, "unit": "%"},
      {"measurement": "inhibition at 5000 µM", "setting": "human sperm; Homo sapiens, Sperm, Table 3, beta-blocker 5 mM alone", "result": 0, "unit": "%"}
    ]}
  ]
}
